Experimental data taken from patent US7718382B2, “Method for identifying compounds for treatment of pain” (Universite Laval, priority 2004, dated 2010).

Tested on: pain hypersensitivity (allodynia) after chronic constriction injury to the sciatic nerve
Assay: Von Frey 50% withdrawal threshold in rats with chronic constriction injury to the sciatic nerve (neuropathic pain)
Assay type: in vivo, Sprague-Dawley rats
Settings: allodynic rats, 500 ng single intrathecal injection
Protocol: Eleven adult, Sprague-Dawley rats received an experimental chronic constriction injury to the sciatic nerve (Mosconi & Kruger, 1996, Pain 64:37-57). Pain hypersensitivity, indicative of neuropathic pain, increased progressively over a two week interval and was monitored using the Von Frey technique (Chaplan et al., 1994, J. Neurosci. Methods 53:55-63). Following the development of allodynia (characterized by a 50% withdrawal threshold (WD50) of ≦2.0 g), rats were administered 500 ng tricyclodecan-9-yl-xanthogenate by intrathecal catheter, the tricyclodecan-9-yl-xanthogenate was prepared in a solution of saline (0.9% NaCl) with 10% v/v dimethyl sulfoxide. Tricyclodecan-9-yl-xanthogenate is available from EMD Biosciences (a division of Calbiochem). A solution of saline (0.9% NaCl) with 10% v/v dimethyl sulfoxide was injected into control rats as a vehicle. The volume of the vehicle administered was the same as for the PLCγ inhibitor solution.
Seven allodynic rats received single intrathecal injections of a vehicle, whereas 4 rats received single injections of tricyclodecan-9-yl-xanthogenate; the mean WD50 for both groups was 1.9±0.2 g prior to injections. […] This significant reduction of pain hypersensitivity persisted for greater than 6 hours.

S=C(S)OC1CC2CC1C1CCCC21 (centres unmarked) [tricyclodecan-9-yl-xanthogenate]
persistence of significant reduction of pain hypersensitivity: greater than 6 hours | 50% withdrawal threshold (WD50) (4 hours post-injection, pre-injection WD50 1.9±0.2 g, vehicle 4.1±0.7 g, p<0.05): 8.8 ± 2.1 g
